According to US20120121591A1 (priority 2009, published 2012):

Experiments:
Assay type in all cases: cell-based
hKv1.3 = hKv1.3 (Homo sapiens, UniProt P22001); test: cell-based; settings: Kv1.3 (IWQ) IC50 (nM, Avg)
[1] = tested on: IL-2 secretion from T cells in human whole blood; settings: read-out: WB (IL-2) IC50 (nM, Avg)
[2] = tested on: IFN-g secretion from T cells in human whole blood; settings: read-out: WB (IFNg) IC50 (nM, Avg)

Chain of hKv1.3 (P22001 whole entry): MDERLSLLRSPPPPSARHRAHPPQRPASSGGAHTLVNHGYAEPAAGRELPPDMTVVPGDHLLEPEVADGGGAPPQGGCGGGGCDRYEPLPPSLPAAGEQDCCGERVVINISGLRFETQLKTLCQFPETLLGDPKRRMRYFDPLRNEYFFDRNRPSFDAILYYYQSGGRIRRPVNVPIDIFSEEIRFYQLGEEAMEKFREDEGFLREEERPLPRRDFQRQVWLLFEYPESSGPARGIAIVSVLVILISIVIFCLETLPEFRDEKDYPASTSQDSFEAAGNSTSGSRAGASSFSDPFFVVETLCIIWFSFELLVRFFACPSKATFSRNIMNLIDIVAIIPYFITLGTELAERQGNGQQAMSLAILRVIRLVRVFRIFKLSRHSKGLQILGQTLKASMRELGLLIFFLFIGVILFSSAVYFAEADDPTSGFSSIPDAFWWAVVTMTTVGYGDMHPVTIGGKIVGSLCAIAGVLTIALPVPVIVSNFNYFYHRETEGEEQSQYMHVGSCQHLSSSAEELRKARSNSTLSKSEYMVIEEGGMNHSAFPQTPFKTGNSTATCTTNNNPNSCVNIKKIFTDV

| SMILES | IC50 (hKv1.3) | IC50 [1] | IC50 [2] |
| --- | --- | --- | --- |
| CC[C@H](C)[C@@H]1NC(=O)[C@@H](NC(=O)[C@H](CO)NC(=O)[C@@H](N)CCCNC(=N)N)CSSC[C@@H](C(=O)O)NC(=O)[C@H]([C@@H](C)O)NC(=O)CNC(=O)[C@@H]2CSSC[C@@H]3NC(=O)[C@H](CCC(N)=O)NC(=O)[C@H](Cc4ccccc4)NC(=O)[C@H](C)NC(=O)[C@H]([C@@H](C)O)NC(=O)[C@H](CSSC[C@H](NC(=O)[C@H](Cc4ccccc4)NC(=O)[C@H](CO)NC(=O)[C@H](CC(C)C)NC(=O)[C@H](CCCNC(=N)N)NC(=O)[C@H](Cc4ccc(O)cc4)NC(=O)[C@H](CCCCN)NC(=O)[C@H](CCSC)NC(=O)[C@H](CO)NC(=O)[C@H](Cc4c[nH]cn4)NC(=O)[C@H](CCCCN)NC3=O)C(=O)N[C@@H](CCCNC(=N)N)C(=O)N[C@@H](CCCCN)C(=O)N[C@@H]([C@@H](C)O)C(=O)N2)NC(=O)[C@H](CCCNC(=N)N)NC(=O)[C@H](CO)NC(=O)[C@H](CCCCN)NC(=O)[C@@H]2CCCN2C(=O)[C@H]([C@@H](C)CC)NC(=O)[C@H]([C@@H](C)O)NC(=O)[C@H](CCCNC(=N)N)NC1=O [[Arg5]ShK] | 3.3 nM | 47.3 nM | 91.7 nM |
| CC[C@H](C)[C@@H]1NC(=O)[C@@H](NC(=O)[C@H](CO)NC(=O)[C@@H](N)CCCNC(=N)N)CSSC[C@@H](C(=O)O)NC(=O)[C@H]([C@@H](C)O)NC(=O)CNC(=O)[C@@H]2CSSC[C@@H]3NC(=O)[C@H](CCC(N)=O)NC(=O)[C@H](Cc4ccccc4)NC(=O)[C@H](C)NC(=O)[C@H]([C@@H](C)O)NC(=O)[C@H](CSSC[C@H](NC(=O)[C@H](Cc4ccccc4)NC(=O)[C@H](CO)NC(=O)[C@H](CC(C)C)NC(=O)[C@H](CCCNC(=N)N)NC(=O)[C@H](Cc4ccc(O)cc4)NC(=O)[C@H](CCCCN)NC(=O)[C@H](CCSC)NC(=O)[C@H](CO)NC(=O)[C@H](Cc4c[nH]cn4)NC(=O)[C@H](CCCCN)NC3=O)C(=O)N[C@@H](CCCNC(=N)N)C(=O)N[C@@H](CCCCN)C(=O)N[C@@H]([C@@H](C)O)C(=O)N2)NC(=O)[C@H](CCCNC(=N)N)NC(=O)[C@H](CO)NC(=O)[C@H](CCCCN)NC(=O)[C@@H]2CCCN2C(=O)[C@H]([C@@H](C)CC)NC(=O)[C@H](CCCNC(=N)N)NC(=O)[C@H](CC(=O)O)NC1=O [[Arg6]ShK] | 0.178 nM | 0.246 nM | 0.4 nM |
| CC[C@H](C)[C@@H]1NC(=O)[C@@H](NC(=O)[C@H](CO)NC(=O)[C@@H](N)CCCNC(=N)N)CSSC[C@@H](C(=O)O)NC(=O)[C@H]([C@@H](C)O)NC(=O)CNC(=O)[C@@H]2CSSC[C@@H]3NC(=O)[C@H](CCC(N)=O)NC(=O)[C@H](Cc4ccccc4)NC(=O)[C@H](C)NC(=O)[C@H]([C@@H](C)O)NC(=O)[C@H](CSSC[C@H](NC(=O)[C@H](Cc4ccccc4)NC(=O)[C@H](CO)NC(=O)[C@H](CC(C)C)NC(=O)[C@H](CCCNC(=N)N)NC(=O)[C@H](Cc4ccc(O)cc4)NC(=O)[C@H](CCCCN)NC(=O)[C@H](CCSC)NC(=O)[C@H](CO)NC(=O)[C@H](Cc4c[nH]cn4)NC(=O)[C@H](CCCCN)NC3=O)C(=O)N[C@@H](CCCNC(=N)N)C(=O)N[C@@H](CCCCN)C(=O)N[C@@H]([C@@H](C)O)C(=O)N2)NC(=O)[C@H](CCCNC(=N)N)NC(=O)[C@H](CO)NC(=O)[C@H](CCCCN)NC(=O)[C@@H]2CCCN2C(=O)[C@H](CCCNC(=N)N)NC(=O)[C@H]([C@@H](C)O)NC(=O)[C@H](CC(=O)O)NC1=O [[Arg7]ShK] | 0.301 nM | 6.39 nM | 11.1 nM |
| CC[C@H](C)[C@@H]1NC(=O)[C@@H](NC(=O)[C@H](CO)NC(=O)[C@@H](N)CCCNC(=N)N)CSSC[C@@H](C(=O)O)NC(=O)[C@H]([C@@H](C)O)NC(=O)CNC(=O)[C@@H]2CSSC[C@@H]3NC(=O)[C@H](CCC(N)=O)NC(=O)[C@H](Cc4ccccc4)NC(=O)[C@H](C)NC(=O)[C@H]([C@@H](C)O)NC(=O)[C@H](CSSC[C@H](NC(=O)[C@H](Cc4ccccc4)NC(=O)[C@H](CO)NC(=O)[C@H](CC(C)C)NC(=O)[C@H](CCCNC(=N)N)NC(=O)[C@H](Cc4ccc(O)cc4)NC(=O)[C@H](CCCCN)NC(=O)[C@H](CCSC)NC(=O)[C@H](CO)NC(=O)[C@H](Cc4c[nH]cn4)NC(=O)[C@H](CCCCN)NC3=O)C(=O)N[C@@H](CCCNC(=N)N)C(=O)N[C@@H](CCCCN)C(=O)N[C@@H]([C@@H](C)O)C(=O)N2)NC(=O)[C@H](CCCNC(=N)N)NC(=O)[C@H](CO)NC(=O)[C@H](CCCCN)NC(=O)[C@H](CCCNC(=N)N)NC(=O)[C@H]([C@@H](C)CC)NC(=O)[C@H]([C@@H](C)O)NC(=O)[C@H](CC(=O)O)NC1=O [[Arg8]ShK] | 0.07 nM | 0.187 nM | 1.42 nM |
| CC[C@H](C)[C@@H]1NC(=O)[C@@H](NC(=O)[C@H](CO)NC(=O)[C@@H](N)CCCNC(=N)N)CSSC[C@@H](C(=O)O)NC(=O)[C@H]([C@@H](C)O)NC(=O)CNC(=O)[C@@H]2CSSC[C@@H]3NC(=O)[C@H](CCC(N)=O)NC(=O)[C@H](Cc4ccccc4)NC(=O)[C@H](C)NC(=O)[C@H]([C@@H](C)O)NC(=O)[C@H](CSSC[C@H](NC(=O)[C@H](Cc4ccccc4)NC(=O)[C@H](CO)NC(=O)[C@H](CC(C)C)NC(=O)[C@H](CCCNC(=N)N)NC(=O)[C@H](Cc4ccc(O)cc4)NC(=O)[C@H](CCCCN)NC(=O)[C@H](CCSC)NC(=O)[C@H](CO)NC(=O)[C@H](Cc4c[nH]cn4)NC(=O)[C@H](CCCCN)NC3=O)C(=O)N[C@@H](CCCNC(=N)N)C(=O)N[C@@H](CCCCN)C(=O)N[C@@H]([C@@H](C)O)C(=O)N2)NC(=O)[C@H](CCCNC(=N)N)NC(=O)[C@H](CO)NC(=O)[C@H](CCCNC(=N)N)NC(=O)[C@@H]2CCCN2C(=O)[C@H]([C@@H](C)CC)NC(=O)[C@H]([C@@H](C)O)NC(=O)[C@H](CC(=O)O)NC1=O [[Arg9]ShK] | 0.096 nM | 0.108 nM | 0.116 nM |
| CC[C@H](C)[C@@H]1NC(=O)[C@@H](NC(=O)[C@H](CO)NC(=O)[C@@H](N)CCCNC(=N)N)CSSC[C@@H](C(=O)O)NC(=O)[C@H]([C@@H](C)O)NC(=O)CNC(=O)[C@@H]2CSSC[C@@H]3NC(=O)[C@H](CCC(N)=O)NC(=O)[C@H](Cc4ccccc4)NC(=O)[C@H](C)NC(=O)[C@H]([C@@H](C)O)NC(=O)[C@H](CSSC[C@H](NC(=O)[C@H](Cc4ccccc4)NC(=O)[C@H](CO)NC(=O)[C@H](CC(C)C)NC(=O)[C@H](CCCNC(=N)N)NC(=O)[C@H](Cc4ccc(O)cc4)NC(=O)[C@H](CCCCN)NC(=O)[C@H](CCSC)NC(=O)[C@H](CO)NC(=O)[C@H](Cc4c[nH]cn4)NC(=O)[C@H](CCCCN)NC3=O)C(=O)N[C@@H](CCCNC(=N)N)C(=O)N[C@@H](CCCCN)C(=O)N[C@@H]([C@@H](C)O)C(=O)N2)NC(=O)[C@H](CCCNC(=N)N)NC(=O)[C@H](CCCNC(=N)N)NC(=O)[C@H](CCCCN)NC(=O)[C@@H]2CCCN2C(=O)[C@H]([C@@H](C)CC)NC(=O)[C@H]([C@@H](C)O)NC(=O)[C@H](CC(=O)O)NC1=O [[Arg10]ShK] | 0.07 nM | 0.029 nM | 0.068 nM |
| CC[C@H](C)[C@@H]1NC(=O)[C@@H](NC(=O)[C@H](CO)NC(=O)[C@@H](N)CCCNC(=N)N)CSSC[C@@H](C(=O)O)NC(=O)[C@H]([C@@H](C)O)NC(=O)CNC(=O)[C@@H]2CSSC[C@@H]3NC(=O)[C@H](CCC(N)=O)NC(=O)[C@H](Cc4ccccc4)NC(=O)[C@H](C)NC(=O)[C@H](CCCNC(=N)N)NC(=O)[C@H](CSSC[C@H](NC(=O)[C@H](Cc4ccccc4)NC(=O)[C@H](CO)NC(=O)[C@H](CC(C)C)NC(=O)[C@H](CCCNC(=N)N)NC(=O)[C@H](Cc4ccc(O)cc4)NC(=O)[C@H](CCCCN)NC(=O)[C@H](CCSC)NC(=O)[C@H](CO)NC(=O)[C@H](Cc4c[nH]cn4)NC(=O)[C@H](CCCCN)NC3=O)C(=O)N[C@@H](CCCNC(=N)N)C(=O)N[C@@H](CCCCN)C(=O)N[C@@H]([C@@H](C)O)C(=O)N2)NC(=O)[C@H](CCCNC(=N)N)NC(=O)[C@H](CO)NC(=O)[C@H](CCCCN)NC(=O)[C@@H]2CCCN2C(=O)[C@H]([C@@H](C)CC)NC(=O)[C@H]([C@@H](C)O)NC(=O)[C@H](CC(=O)O)NC1=O [[Arg13]ShK] | 0.149 nM | 0.503 nM | 0.629 nM |
| CC[C@H](C)[C@@H]1NC(=O)[C@@H](NC(=O)[C@H](CO)NC(=O)[C@@H](N)CCCNC(=N)N)CSSC[C@@H](C(=O)O)NC(=O)[C@H]([C@@H](C)O)NC(=O)CNC(=O)[C@@H]2CSSC[C@@H]3NC(=O)[C@H](CCC(N)=O)NC(=O)[C@H](Cc4ccccc4)NC(=O)[C@H](CCCNC(=N)N)NC(=O)[C@H]([C@@H](C)O)NC(=O)[C@H](CSSC[C@H](NC(=O)[C@H](Cc4ccccc4)NC(=O)[C@H](CO)NC(=O)[C@H](CC(C)C)NC(=O)[C@H](CCCNC(=N)N)NC(=O)[C@H](Cc4ccc(O)cc4)NC(=O)[C@H](CCCCN)NC(=O)[C@H](CCSC)NC(=O)[C@H](CO)NC(=O)[C@H](Cc4c[nH]cn4)NC(=O)[C@H](CCCCN)NC3=O)C(=O)N[C@@H](CCCNC(=N)N)C(=O)N[C@@H](CCCCN)C(=O)N[C@@H]([C@@H](C)O)C(=O)N2)NC(=O)[C@H](CCCNC(=N)N)NC(=O)[C@H](CO)NC(=O)[C@H](CCCCN)NC(=O)[C@@H]2CCCN2C(=O)[C@H]([C@@H](C)CC)NC(=O)[C@H]([C@@H](C)O)NC(=O)[C@H](CC(=O)O)NC1=O [[Arg14]ShK] | 0.077 nM | 0.266 nM | 0.307 nM |
| CC[C@H](C)[C@@H]1NC(=O)[C@@H](NC(=O)[C@H](CO)NC(=O)[C@@H](N)CCCNC(=N)N)CSSC[C@@H](C(=O)O)NC(=O)[C@H]([C@@H](C)O)NC(=O)CNC(=O)[C@@H]2CSSC[C@@H]3NC(=O)[C@H](CCC(N)=O)NC(=O)[C@H](CCCNC(=N)N)NC(=O)[C@H](C)NC(=O)[C@H]([C@@H](C)O)NC(=O)[C@H](CSSC[C@H](NC(=O)[C@H](Cc4ccccc4)NC(=O)[C@H](CO)NC(=O)[C@H](CC(C)C)NC(=O)[C@H](CCCNC(=N)N)NC(=O)[C@H](Cc4ccc(O)cc4)NC(=O)[C@H](CCCCN)NC(=O)[C@H](CCSC)NC(=O)[C@H](CO)NC(=O)[C@H](Cc4c[nH]cn4)NC(=O)[C@H](CCCCN)NC3=O)C(=O)N[C@@H](CCCNC(=N)N)C(=O)N[C@@H](CCCCN)C(=O)N[C@@H]([C@@H](C)O)C(=O)N2)NC(=O)[C@H](CCCNC(=N)N)NC(=O)[C@H](CO)NC(=O)[C@H](CCCCN)NC(=O)[C@@H]2CCCN2C(=O)[C@H]([C@@H](C)CC)NC(=O)[C@H]([C@@H](C)O)NC(=O)[C@H](CC(=O)O)NC1=O [[Arg15]ShK] | 0.088 nM | 0.162 nM | 0.204 nM |
